{"source": "patent US20240343699A1", "about": "“DERIVATIVES OF SUBSTITUTED MORPHOLINES AND USES THEREOF” (Supernus Pharmaceuticals, Inc., priority 2023, published 2024)", "key": {"[1]": {"assay": "Stability in fluid matrices SGF, SIF and PBS", "assay_type": "physicochemical", "details": "37° C.", "experimental": "Simulated Gastric Fluid (SGF) was prepared with 34.2 mM NaCl, 80 μM sodium taurocholate, 20 μM of L-alpha phosphatidylcholine/lecithin, and 0.1 mg/mL of Pepsin. 1 M HCl was added dropwise to adjust the pH to 1.96. Simulated Intestinal Fluid (SIF) was prepared with sodium phosphate monobasic, 105.9 mM NaCl, […] sodium taurocholate, and […] of L-alpha phosphatidylcholine/lecithin. 1 N NaOH was added dropwise to adjust the pH to 5.98. Phosphate buffered saline (PBS) at pH 6.0 was made by titrating PBS at pH 7.4 with 1 M HCl.\n(§1) Stability of Test Articles at Different pH Values. 10 mM stock solutions of COMPOUND A were prepared in DMSO. From this stock solution, a single concentration in a 10 μL aliquot was added to three fluid matrices: SGF at pH 2.0 (gastric), SIF at pH 6.0 (upper intestine), and PBS at 7.4 (systemic). The final volume was 1 mL (0.1 mM). The preparations were then incubated at 37° C. and samples were collected at 0, 15, 30, 60, and 120 min for analysis of parent material by LC/MS/MS. The collected sample was quenched in acetonitrile/0.1% formic acid mixture. Red Blood Cell (RBC): Human and rat blood were centrifuged to separate out red blood cells at […] for 15 min. The upper plasma level was aspirated with a micropipette and placed in a bleach solution for disposal. The RBC pellet was resuspended in sterile isotonic saline. The pellet was gently resuspended by rocking the tube. The sample was then centrifuged again to collect the RBC pellet and then resuspended and washed one more time following the same procedure. A total of three was done. Following the last wash and centrifugation, the RBCs were resuspended with PBS; and mixed by inversion. Aliquots of the resuspended and washed RBCs were then placed into 4 reaction tubes. These tubes were centrifuged to collect the RBCs. The fluid level was marked on each tube, then the supernatant was aspirated off and the cells resuspended with room temperature PBS pH 7.4 to the original mark. An aliquot of the RBC suspension was added to four sterile tubes containing PBS pH 7.4 at room temperature."}, "[2]": {"assay": "Stability in human whole blood, red blood cells and plasma (with/without protease inhibitors, pH 6.0)", "assay_type": "in vitro ADME", "experimental": "as §1\n(§2) Stability in Human and Rat Red Blood cells and Hemolysis. […] After centrifugation, 70 μL of supernatant (without disturbing the pellet) was transferred to a clean and clear polystyrene flat bottomed 96-well plate and the absorbance of the sample at a single wavelength was measured using a Bio Tech Synergy Hl Plate Reader at a wavelength of 410 nm. […] Stability was measured by measuring loss of parent compound using LC/MS/MS."}, "[3]": {"assay": "Stability in rat whole blood, red blood cells and plasma", "assay_type": "in vitro ADME", "details": "0.5 mM, 0-120 min", "experimental": "Stability of Test Articles at Different pH Values. 10 mM stock solutions of COMPOUND A were prepared in DMSO. From this stock solution, a single concentration in a 10 μL aliquot was added to three fluid matrices: SGF at pH 2.0 (gastric), SIF at pH 6.0 (upper intestine), and PBS at 7.4 (systemic). The final volume was 1 mL (0.1 mM). The preparations were then incubated at 37° C. and samples were collected at 0, 15, 30, 60, and 120 min for analysis of parent material by LC/MS/MS. The collected sample was quenched in acetonitrile/0.1% formic acid mixture. Red Blood Cell (RBC): Human and rat blood were centrifuged to separate out red blood cells at […] for 15 min. The upper plasma level was aspirated with a micropipette and placed in a bleach solution for disposal. The RBC pellet was resuspended in sterile isotonic saline. The pellet was gently resuspended by rocking the tube. […]\nas §2"}, "[4]": {"assay": "Stability in human plasma with protease inhibitor cocktail and individual amidase/esterase inhibitors", "assay_type": "in vitro ADME", "experimental": "Plasma Preparation. Whole blood was centrifuged at 1174×g for 30 min. Aliquots of the supernatant were then transferred to 5 mL centrifuge tubes.\nStability of COMPOUND A in Human and Rat Plasma (circulating enzymes) in the Presence of Protease Inhibitor Cocktail. COMPOUND A was added to plasma with and without protease inhibitor cocktail and incubated to study inhibition of test article (COMPOUND A) degradation. […] Plasma with and without inhibitor cocktail was aliquoted into 1.5 mL tubes to a volume of 950 μL, then preincubated for 15 min. An aliquot (50 μL) of test article stock solution was added to plasma with and without inhibitor and tubes were vortexed then incubated at 37° C. Degradation began with the addition of test article. Aliquots (50 μL) were taken at 0, 15, 30, 60, and 120 min after being vortexed and were quenched in 150 μL acetonitrile/0.1% formic acid solution and briefly vortexed then immediately frozen at −80° C. Stability was determined by measuring loss of parent compound using LC/MS/MS methods. Each exposure condition and time point were done in triplicate.\nStability of COMPOUND A in Human and Rat Plasma (circulating enzymes) in the Presence of Individual Protease Inhibitors. In addition to using a cocktail of protease inhibitors, individual inhibitors were used in plasma. […] Stability was determined by measuring loss of parent compound using LC/MS/MS methods. […]"}}, "data": [{"smiles": "CCOc1ccccc1OC[C@@H]1CN(C(=O)OC(C)OC(=O)[C@@H](N)C(C)C)CCO1", "note": "(stereo partly drawn) [COMPOUND A]", "values": [{"measurement": "stability in PBS (amount of parent compound)", "setting": "[1]; PBS pH 7.4, 0.1 mM", "value": "time-dependent decrease in the amount of parent compound"}, {"measurement": "stability in SGF (LC/MS/MS peak area of parent)", "setting": "[1]; SGF pH 2.0, 0.1 mM, 0-120 min", "value": "time-dependent decrease in the LC/MS/MS peak area until 20 min"}, {"measurement": "amount of parent compound in SIF", "setting": "[1]; SIF pH 6.0, 0.1 mM, all time points", "value": 100, "unit": "%"}, {"measurement": "stability in human plasma at pH 6.0", "setting": "[2]; 0-30 min", "value": "slower degradation compared to the other matrices"}, {"measurement": "stability in human plasma with protease inhibitor cocktail", "setting": "[2]; 0-30 min", "value": "time-dependent decrease in the amount of parent compound present"}, {"measurement": "stability in human red blood cells and whole blood", "setting": "[2]; 0.5 mM, 0-120 min", "value": "time-dependent decrease in the amount of parent compound present"}, {"measurement": "stability in rat red blood cells, plasma and whole blood", "setting": "[3]", "value": "time-dependent decrease in the amount of parent compound present"}, {"measurement": "degradation accounted for by esterase and amidase enzymes", "setting": "[4]; fresh human and rat plasma with amidase and esterase inhibitors", "value": "~100", "unit": "%"}, {"measurement": "Human proteolytic activity relative to rat proteolytic activity", "setting": "[4]; plasma, 60 min incubation", "value": "about 3 fold"}]}]}
